Key:
[1] = target: FLuc-C-HiBiT (firefly luciferase) (Photinus pyralis, UniProt P08659, form not given/L550V); assay: SDR assay, FLuc-C-HiBiT; conditions: for SDR + 10 mM ATP / SDR No ATP: 10 nM FLuc-C-HiBiT, normalized activity, Log [Compound]
[2] = target: FLuc-C-NLuc (firefly luciferase) (Photinus pyralis, UniProt P08659, form not given/L550V); assay: SDR assay, FLuc-C-NLuc; conditions: for SDR + 10 mM ATP / SDR No ATP: 1 nM FLuc-C-NLuc, normalized activity, Log [Compound]; for SDR+ATP / SDR: Log[Compound]; for SDR+ATP: 10 mM ATP; for SDR: absence of ATP
Chain of FLuc-C-NLuc (firefly luciferase) (P08659 2-550 L550V, form open): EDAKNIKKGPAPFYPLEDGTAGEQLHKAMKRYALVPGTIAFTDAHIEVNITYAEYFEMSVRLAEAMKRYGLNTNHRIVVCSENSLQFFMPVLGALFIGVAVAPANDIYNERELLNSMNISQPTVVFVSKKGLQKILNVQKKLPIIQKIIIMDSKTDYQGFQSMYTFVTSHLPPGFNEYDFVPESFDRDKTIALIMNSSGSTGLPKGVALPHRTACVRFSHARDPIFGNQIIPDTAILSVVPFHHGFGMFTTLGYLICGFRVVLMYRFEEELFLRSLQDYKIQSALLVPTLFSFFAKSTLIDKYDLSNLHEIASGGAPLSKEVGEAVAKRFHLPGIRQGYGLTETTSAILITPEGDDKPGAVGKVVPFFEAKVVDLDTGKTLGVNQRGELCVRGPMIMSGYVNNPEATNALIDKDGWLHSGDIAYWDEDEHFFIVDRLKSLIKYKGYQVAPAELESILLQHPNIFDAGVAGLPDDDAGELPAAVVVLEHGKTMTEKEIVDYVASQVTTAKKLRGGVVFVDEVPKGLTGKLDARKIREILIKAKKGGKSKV

Chain of FLuc-C-HiBiT (firefly luciferase) (P08659 2-550 L550V, form open): as above

## CC(CNC(=O)C1CCN(C(=O)c2ncn3c2COC(c2ccccc2)C3)CC1)c1ccccc1 (centres unmarked) [compound 00449795]
[1]; M -4.48
  SDR + 10 mM ATP: 68.6
  SDR No ATP: 10.5
[1]; M -4.96
  SDR + 10 mM ATP: 61.3
  SDR No ATP: 11.6
[1]; M -5.44
  SDR + 10 mM ATP: 53.2
  SDR No ATP: 11.0
[1]; M -5.91
  SDR + 10 mM ATP: 34.2
  SDR No ATP: 13.6
[1]; M -6.39
  SDR + 10 mM ATP: 20.6
  SDR No ATP: 11.0
[1]; M -6.87
  SDR + 10 mM ATP: 11.1
  SDR No ATP: 10.7
[1]; M -7.35
  SDR + 10 mM ATP: 7.5
  SDR No ATP: 9.2
[1]; M -7.82
  SDR + 10 mM ATP: 10.0
  SDR No ATP: 13.4
[1]; M -8.30
  SDR + 10 mM ATP: 8.1
  SDR No ATP: 10.9
[1]; M -8.78
  SDR + 10 mM ATP: 7.1
  SDR No ATP: 11.5
[1]; M -9.25
  SDR + 10 mM ATP: 7.9
  SDR No ATP: 9.6
[1]; + ATP, SDR max. response, clade S
  % Activity (max response, + ATP): 349.21%
[1]; - ATP, SDR max. response, clade S
  % Activity (max response, - ATP): 0.00%
[1]; FLuc-C-HiBiT
  ATP dependence of SDR assay output (in words): strictly ATP-dependent
[2]; M -4.48
  SDR + 10 mM ATP: 34.2
  SDR No ATP: -1.4
  SDR+ATP: 68.61
  SDR: 10.53
[2]; M -4.96
  SDR + 10 mM ATP: 33.8
  SDR No ATP: -2.1
  SDR+ATP: 61.30
  SDR: 11.57
[2]; M -5.44
  SDR + 10 mM ATP: 30.7
  SDR No ATP: -1.5
  SDR+ATP: 53.17
  SDR: 11.00
[2]; M -5.91
  SDR + 10 mM ATP: 28.0
  SDR No ATP: -3.2
  SDR+ATP: 34.17
  SDR: 13.65
[2]; M -6.39
  SDR + 10 mM ATP: 22.7
  SDR No ATP: -2.0
  SDR+ATP: 20.63
  SDR: 10.99
[2]; M -6.87
  SDR + 10 mM ATP: 5.0
  SDR No ATP: -1.8
  SDR+ATP: 11.14
  SDR: 10.66
[2]; M -7.35
  SDR + 10 mM ATP: 2.2
  SDR No ATP: -2.1
  SDR+ATP: 7.50
  SDR: 9.25
[2]; M -7.82
  SDR + 10 mM ATP: -0.7
  SDR No ATP: -1.8
  SDR+ATP: 9.96
  SDR: 13.35
[2]; M -8.30
  SDR + 10 mM ATP: -0.9
  SDR No ATP: -1.6
  SDR+ATP: 8.11
  SDR: 10.95
[2]; M -8.78
  SDR + 10 mM ATP: -2.4
  SDR No ATP: -2.4
  SDR+ATP: 7.12
  SDR: 11.55
[2]; - ATP
  Efficacy (%) FLuc-C-NLuc SDR (-ATP): 0.00%
[2]; M -9.25
  SDR+ATP: 7.93
  SDR: 9.61
